Measured values published in US6242440A, “Synergistic compositions comprising an oxathiazine and a benzothiophene-2-carboxamide-S,S-dioxide” (Janssen Pharmaceutica N.V., priority 1997, dated 2001).

Assays:
[1] = test system: Sclerophoma; assay: wood stick test (Scots Pine); type: cell-based, Sclerophoma entoxylina
Procedure: (§1) Oven-dried wood sticks (50×12×2 mm) of Scots Pine (Pinus sylvestris) were dipped during 3 hours in a methanol solution comprising a compound of formula (I), a compound of formula (II), or a combination of a compound of formula (I) and a compound of formula (II), and allowed to dry overnight in a sterile laminar air flow. In each Petri dish one stick was placed on culture medium, PDA PS (Potato Dextrose Agar containing 60 mg penicillin and 200 mg streptomycin), previously seeded with inoculum. Two drops of fungal or spore suspension were pipetted on the upper surface of the stick The Petri dishes were incubated at 22° C. and 70% relative humidity. The test was evaluated after sufficient growth of the fungus on the control sticks. The following score system was used:
(§2) 0: sticks free of fungal growth
(§3) 1: traces of growth on the stick
(§4) 2: slight growth (5 to 25% of the surface covered)
(§5) 3 : moderate growth (25 to 50% of the surface covered)
(§6) 4: vigorous to maximum growth (more tha 50% covered)
(§7) To calculate synergism results were converted to the next artificial activities:
(§8) Yhe expected activities E were calculated by using the so-called formula of Colby: (Colby, S. R. Weeds 1967, 15: 20-22), [formula]
(§9) wherein X and Y express the relative activities obtained for each of the active ingredients. A synergistic effect can be acknowledged if the found activity exceeds calculated activity.
(§10) The compound of formula (I) used in the experiment was 3-benzo[b]-thien-2-yl)-5,6-dihydro-1,4,2-oxathiazine 4-oxide, i.e. compound (1). The compound of formula (II) used in the experiment was N-cyclohexyl-benzothiophene-2-carboxamide-S,S-dioxide, i.e. compound (2).

[2] = test system: Aspergillus; assay: wood stick test (Scots Pine); type: cell-based, Aspergillus niger
Procedure: as §1, §2, §3, §4, §5, §6, §7, §8, §9, §10

[3] = test system: Sclerophoma entoxylina; assay: poison plate assay, mycelial growth and sporulation; type: cell-based
Procedure: (§11) The efficacy of the active ingredients against mycelial growth and sporulation of Aureobasidium pullulans, Aspergillus niger, Scierophoma entoxylina, Trichodenna viride, was determined in the poison plate assay. The required concentrations of the fungicide(s) were obtained by diluting the active ingredients (I), (II) or the combination of (I) and (II) in dimethyl sulfoxide (DMSO) at 800 times the final test concentration. The stock solutions in DMSO were pipetted into Petri-dishes. Malt extract agar (3%) was added aseptically and uniform distribution was obtained by shaking. Each plate was spot inoculated with a spore or mycelial suspension. After incubation at 22° C. and 70% relative humidity for a period long enough to allow complete growth of controls, diameters of colonies were measured. Relative activities were calculated by taking the absence of fungal growth (diameter 0 mm) as 100%. From the activity of the active ingredients alone, the expected activities E were calculated by using the so-called formula of Colby: (Colby, S. R. Weeds 1967, 15: 20-22), [formula]
as §9
(§12) Equal efficacy was observed whenever complete inhibition of fungal growth occurred by one of the active ingredients (I) or (II) alone. The compound of formula (I) used in the experiment was 3-benzo[b]-thien-2-yl)-5,6-dihydro-1,4,2-oxathiazine 4-oxide, i.e. compound (1). The compound of formula (II) used in the experiment was N-cyclohexyl-benzothiophene-2-carboxamide-S,S-dioxide, i.e. compound (2).

[4] = test system: Aureobasidium pullulans; assay: as above; type: cell-based
Procedure: as §11, §9, §12

[5] = test system: Aspergillus niger; assay: as above; type: cell-based
Procedure: as §11, §9, §12

[6] = test system: Trichoderma viride; assay: as above; type: cell-based
Procedure: as §11, §9, §12

[7] = test system: Aureobasidium; assay: wood stick test (Scots Pine); type: cell-based, Aureobasidium pullulans; conditions: read-out: measured (relative) activity %
Procedure: as §1, §2, §3, §4, §5, §6, §7, §8, §9, §10

In the case of `[O-][S+]1CCON=C1c1cc2ccccc2s1` (stereo not shown) [compound (1), 3-(benzo[b]thien-2-yl)-5,6-dihydro-1,4,2-oxathiazine, 4-oxide], the “% overgrown of the sticks” value ([1]; (1) 200 ppm) is reported as 100%, the stick test scores ([1]; (1) 200 ppm) is reported as 4 (vigorous to maximum growth (more tha 50% covered)) and the “% overgrown of the sticks” value ([1]; (1) 400 ppm) is reported as 50%. For the same molecule, the stick test scores ([1]; (1) 400 ppm) was 3 (moderate growth (25 to 50% of the surface covered)), the activity at 200 ppm ([1]; Sclerophoma entoxylina, (1) 200 ppm, read-out: measured (relative) activity %) was 0% and the activity at 400 ppm ([1]; Sclerophoma entoxylina, (1) 400 ppm, read-out: measured (relative) activity %) was 50%. For the same molecule, the “% overgrown of the sticks” value ([2]; (1) 200 ppm) was 100%, the stick test scores ([2]; (1) 200 ppm) was 4 (vigorous to maximum growth (more tha 50% covered)) and the “% overgrown of the sticks” value ([2]; (1) 400 ppm) was 50%. The stick test scores ([2]; (1) 400 ppm) was 3 (moderate growth (25 to 50% of the surface covered)), the activity at 400 ppm ([2]; Aspergillus, (1) 400 ppm, read-out: measured (relative) activity %) was 50% and the activity measured ([3]; Exp 1, 5 days, (1) 0.62 mg/l) was 2%. The growth ([3]; Exp 1, 5 days, (1) 0.62 mg/l) was 42 mm, the activity measured ([3]; Exp 1, 5 days, (1) 1.25 mg/l) was 14% and the growth ([3]; Exp 1, 5 days, (1) 1.25 mg/l) was 37 mm. The activity measured ([3]; Exp 1, 5 days, (1) 2.50 mg/l) was 37%, the growth ([3]; Exp 1, 5 days, (1) 2.50 mg/l) was 27 mm and the activity measured ([3]; Exp 1, 5 days, (1) 5.00 mg/l) was 84%. It also gave a growth ([3]; Exp 1, 5 days, (1) 5.00 mg/l) of 7 mm, an activity measured ([3]; Exp 2, 7 days, (1) 1.25 mg/l) of 4% and a growth ([3]; Exp 2, 7 days, (1) 1.25 mg/l) of 47 mm. It also gave an activity measured ([3]; Exp 2, 7 days, (1) 2.50 mg/l) of 18%, a growth ([3]; Exp 2, 7 days, (1) 2.50 mg/l) of 40 mm and an activity measured ([4]; Exp 1, 5 days, (1) 0.62 mg/l) of 13%. The growth ([4]; Exp 1, 5 days, (1) 0.62 mg/l) was 33 mm, the activity measured ([4]; Exp 1, 5 days, (1) 1.25 mg/l) was 32% and the growth ([4]; Exp 1, 5 days, (1) 1.25 mg/l) was 26 mm. For the same molecule, the activity measured ([4]; Exp 1, 5 days, (1) 2.50 mg/l) was 61%, the growth ([4]; Exp 1, 5 days, (1) 2.50 mg/l) was 15 mm and the activity measured ([4]; Exp 1, 5 days, (1) 5.00 mg/l) was 87%. The growth ([4]; Exp 1, 5 days, (1) 5.00 mg/l) was 5 mm, the activity measured ([4]; Exp 2, 7 days, (1) 1.25 mg/l) was 8% and the growth ([4]; Exp 2, 7 days, (1) 1.25 mg/l) was 44 mm. For the same molecule, the activity measured ([4]; Exp 2, 7 days, (1) 2.50 mg/l) was 21%, the growth ([4]; Exp 2, 7 days, (1) 2.50 mg/l) was 38 mm and the activity measured ([5]; Exp 1, 5 days, (1) 0.62 mg/l) was 5%. It also gave a growth ([5]; Exp 1, 5 days, (1) 0.62 mg/l) of 42 mm, an activity measured ([5]; Exp 1, 5 days, (1) 1.25 mg/l) of 14% and a growth ([5]; Exp 1, 5 days, (1) 1.25 mg/l) of 38 mm. For the same molecule, the activity measured ([5]; Exp 1, 5 days, (1) 2.50 mg/l) was 39%, the growth ([5]; Exp 1, 5 days, (1) 2.50 mg/l) was 27 mm and the activity measured ([5]; Exp 1, 5 days, (1) 5.00 mg/l) was 100%. It also gave a growth ([5]; Exp 1, 5 days, (1) 5.00 mg/l) of 0 mm, an activity measured ([5]; Exp 2, 7 days, (1) 1.25 mg/l) of 16% and a growth ([5]; Exp 2, 7 days, (1) 1.25 mg/l) of 38 mm. It also gave an activity measured ([5]; Exp 2, 7 days, (1) 2.50 mg/l) of 44%, a growth ([5]; Exp 2, 7 days, (1) 2.50 mg/l) of 25 mm and an activity measured ([6]; Exp 1, 5 days, (1) 0.62 mg/l) of 0%. It also gave a growth ([6]; Exp 1, 5 days, (1) 0.62 mg/l) of 49 mm, an activity measured ([6]; Exp 1, 5 days, (1) 1.25 mg/l) of 0% and a growth ([6]; Exp 1, 5 days, (1) 1.25 mg/l) of 49 mm. For the same molecule, the activity measured ([6]; Exp 1, 5 days, (1) 2.50 mg/l) was 2%, the growth ([6]; Exp 1, 5 days, (1) 2.50 mg/l) was 48 mm and the activity measured ([6]; Exp 1, 5 days, (1) 5.00 mg/l) was 29%. It also gave a growth ([6]; Exp 1, 5 days, (1) 5.00 mg/l) of 35 mm, an activity measured ([6]; Exp 2, 7 days, (1) 1.25 mg/l) of 12% and a growth ([6]; Exp 2, 7 days, (1) 1.25 mg/l) of 43 mm. For the same molecule, the activity measured ([6]; Exp 2, 7 days, (1) 2.50 mg/l) was 29%, the growth ([6]; Exp 2, 7 days, (1) 2.50 mg/l) was 35 mm and the activity at 200 ppm ([7]; (1) 200 ppm) was 0%. For the same molecule, the activity at 400 ppm ([7]; (1) 400 ppm) was 50%.
